Data from patent US20260022142A1, “MACROCYCLIC IMMUNOMODULATORS” (Bristol-Myers Squibb Company, priority 2022, published 2026).
Bridge positions count the residues as written; N and C are the ends. Square brackets hold non-standard residues; d marks the D form. Peptide text beside a SMILES is read from it. * marks the point of attachment. Bip = N[C@@H](Cc1ccc(-c2ccccc2)cc1)C(=O)O; Phe(3-Me) = Cc1cccc(C[C@H](N)C(=O)O)c1; 4Pal = N[C@@H](Cc1ccncc1)C(=O)O; Cha = N[C@@H](CC1CCCCC1)C(=O)O; Cit = NC(=O)NCCC[C@H](N)C(=O)O; Carboxymethyl = O=C(O)C*; Orn = NCCC[C@H](N)C(=O)O; Aun = NCCCCCCCCCCC(=O)O; Dab = NCC[C@H](N)C(=O)O; Dap = NC[C@H](N)C(=O)O

Target: T1, PD-1/PD-L1 interaction (PE-labeled human PD-L1-Ig binding to Jurkat cell line over-expressing human PD-1) (Homo sapiens, UniProt Q15116)
T1 construct: expressed in transfected cells; host or cells: Jurkat
T1 sequence (Q15116 25-288): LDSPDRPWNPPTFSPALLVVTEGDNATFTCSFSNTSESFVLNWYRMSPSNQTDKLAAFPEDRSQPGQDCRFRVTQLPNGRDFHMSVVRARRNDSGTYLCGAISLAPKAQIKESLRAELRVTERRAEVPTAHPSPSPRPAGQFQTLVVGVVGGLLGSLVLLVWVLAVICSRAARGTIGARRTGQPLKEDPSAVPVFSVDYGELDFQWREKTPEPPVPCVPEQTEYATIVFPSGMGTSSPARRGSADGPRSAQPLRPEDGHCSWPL
Assay: Jurkat-PD-1 Cell Binding High-Content Screening Assay (CBA)
Format: cell-based
Conditions: Jurkat cell line over-expressing human PD-1; PE-labeled PD-L1-Ig 20 nM final; read-out: Jurkat hPD1-PDL1 IC50
Procedure, shortened: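 First, compound is added to PD-1-expressing Jurkat cells in serum-containing DMEM and left 2 h at 37° C. Next, PE-conjugated PD-L1-Ig is introduced at 20 nM final concentration for 1 hour. Finally, cells are fixed in 4% paraformaldehyde with Hoechst 33342, washed and imaged.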

SMILES	IC50 [nM]
Cc1cccc(C[C@@H]2NC(=O)[C@H](CC(=O)O)NC(=O)[C@H](Cc3ccc(OCC(=O)O)cc3)NC(=O)[C@H](CN)NC(=O)CSC[C@@H](C(=O)N[C@@H](CCN)C(=O)NCCCCCCCCCCC(=O)O)NC(=O)[C@@H]([C@H](C)O)NC(=O)[C@H](C(C)C)NC(=O)[C@H](CC3CCCCC3)NC(=O)[C@H](CCN)NC(=O)[C@@H](CC(C)C)NC(=O)[C@H](CCCN)NC(=O)[C@H](Cc3ccc(O)cc3)NC(=O)[C@H](Cc3ccc(-c4ccccc4)cc3)NC(=O)[C@H](C(C)C)NC2=O)c1 [Compound 2722] ({CH2CO}-[Dap]Y(Carboxymethyl)D[Phe(3-Me)]V[Bip]Y[Orn][dL][Dab][Cha]V[dT]C[Dab][Aun]-OH; thioether N-14)	34.3
Cc1cccc(C[C@@H]2NC(=O)[C@H](CC(=O)O)NC(=O)[C@H](Cc3ccc(OCC(=O)O)cc3)NC(=O)[C@H](CCCNC(=N)N)NC(=O)CSC[C@@H](C(=O)N[C@@H](CCN)C(=O)NCCCCCCCCCCC(=O)O)NC(=O)[C@H](CCCNC(N)=O)NC(=O)[C@H](C(C)C)NC(=O)[C@H](CC3CCCCC3)NC(=O)[C@H](CCN)NC(=O)[C@@H](CC(C)C)NC(=O)[C@H](CCCN)NC(=O)[C@H](Cc3ccc(O)cc3)NC(=O)[C@H](Cc3ccc(-c4ccccc4)cc3)NC(=O)[C@H](C(C)C)NC2=O)c1 [Compound 2723] ({CH2CO}-RY(Carboxymethyl)D[Phe(3-Me)]V[Bip]Y[Orn][dL][Dab][Cha]V[Cit]C[Dab][Aun]-OH; thioether N-14)	26.9
Cc1cccc(C[C@@H]2NC(=O)[C@H](CC(=O)O)NC(=O)[C@H](Cc3ccc(OCC(=O)O)cc3)NC(=O)[C@H](CCCNC(=N)N)NC(=O)CSC[C@@H](C(=O)N[C@@H](CCN)C(=O)NCCCCCCCCCCC(=O)O)NC(=O)[C@H](CCCNC(N)=O)NC(=O)[C@H](C(C)C)NC(=O)[C@H](CC3CCCCC3)NC(=O)[C@H](CCN)NC(=O)[C@@H](CC(C)C)NC(=O)[C@H](CCCN)NC(=O)[C@H](Cc3ccc(O)cc3)NC(=O)[C@H](Cc3ccc(-c4ccccc4)cc3)NC(=O)[C@H](Cc3ccc(O)cc3)NC2=O)c1 [Compound 2724] ({CH2CO}-RY(Carboxymethyl)D[Phe(3-Me)]Y[Bip]Y[Orn][dL][Dab][Cha]V[Cit]C[Dab][Aun]-OH; thioether N-14)	7.7
Cc1cccc(C[C@@H]2NC(=O)[C@H](CC(=O)O)NC(=O)[C@H](Cc3ccc(OCC(=O)O)cc3)NC(=O)[C@H](CCCNC(=N)N)NC(=O)CSC[C@@H](C(=O)N[C@@H](CCN)C(=O)NCCCCCCCCCCC(=O)O)NC(=O)[C@H]([C@@H](C)O)NC(=O)[C@H](C(C)C)NC(=O)[C@H](CC3CCCCC3)NC(=O)[C@H](CCN)NC(=O)[C@@H](CC(C)C)NC(=O)[C@H](CCCN)NC(=O)[C@H](Cc3ccc(O)cc3)NC(=O)[C@H](Cc3ccc(-c4ccccc4)cc3)NC(=O)[C@H](C(C)C)NC2=O)c1 [Compound 2725] ({CH2CO}-RY(Carboxymethyl)D[Phe(3-Me)]V[Bip]Y[Orn][dL][Dab][Cha]VTC[Dab][Aun]-OH; thioether N-14)	29.9
Cc1cccc(C[C@@H]2NC(=O)[C@H](CC(=O)O)NC(=O)[C@H](Cc3ccc(OCC(=O)O)cc3)NC(=O)[C@H](CCCNC(=N)N)NC(=O)CSC[C@@H](C(=O)N[C@@H](CCN)C(=O)NCCCCCCCCCCC(=O)O)NC(=O)[C@H]([C@@H](C)O)NC(=O)[C@H](C(C)C)NC(=O)[C@H](CC3CCCCC3)NC(=O)[C@H](CCN)NC(=O)[C@@H](CC(C)C)NC(=O)[C@H](CCCN)NC(=O)[C@H](Cc3ccc(O)cc3)NC(=O)[C@H](Cc3ccc(-c4ccccc4)cc3)NC(=O)[C@H](Cc3ccc(O)cc3)NC2=O)c1 [Compound 2726] ({CH2CO}-RY(Carboxymethyl)D[Phe(3-Me)]Y[Bip]Y[Orn][dL][Dab][Cha]VTC[Dab][Aun]-OH; thioether N-14)	24.1
CC(C)C[C@H]1NC(=O)[C@H](CCCN)NC(=O)[C@H](Cc2ccc(O)cc2)NC(=O)[C@H](Cc2ccc(-c3ccccc3)cc2)NC(=O)[C@H](C(C)C)NC(=O)[C@H](Cc2c[nH]c3ccccc23)NC(=O)[C@H](CC(=O)O)NC(=O)[C@H](Cc2ccc(OCC(=O)O)cc2)NC(=O)[C@H]([C@@H](C)O)NC(=O)CSC[C@@H](C(=O)N[C@@H](CCN)C(=O)NCCCCCCCCCCC(=O)O)NC(=O)[C@H]([C@@H](C)O)NC(=O)[C@H](C(C)C)NC(=O)[C@H](CC2CCCCC2)NC(=O)[C@H](CCN)NC1=O [Compound 2727] ({CH2CO}-TY(Carboxymethyl)DWV[Bip]Y[Orn][dL][Dab][Cha]VTC[Dab][Aun]-OH; thioether N-14)	30.1

Next, values leading:

IC50 [nM]	SMILES
17.4	CC(C)C[C@H]1NC(=O)[C@H](CCCN)NC(=O)[C@H](Cc2ccc(O)cc2)NC(=O)[C@H](Cc2ccc(-c3ccccc3)cc2)NC(=O)[C@H](Cc2ccc(O)cc2)NC(=O)[C@H](Cc2c[nH]c3ccccc23)NC(=O)[C@H](CC(=O)O)NC(=O)[C@H](Cc2ccc(OCC(=O)O)cc2)NC(=O)[C@H]([C@@H](C)O)NC(=O)CSC[C@@H](C(=O)N[C@@H](CCN)C(=O)NCCCCCCCCCCC(=O)O)NC(=O)[C@H]([C@@H](C)O)NC(=O)[C@H](C(C)C)NC(=O)[C@H](CC2CCCCC2)NC(=O)[C@H](CCN)NC1=O [Compound 2728] ({CH2CO}-TY(Carboxymethyl)DWY[Bip]Y[Orn][dL][Dab][Cha]VTC[Dab][Aun]-OH; thioether N-14)
12.9	CC(C)C[C@H]1NC(=O)[C@H](CCCN)NC(=O)[C@H](Cc2ccc(O)cc2)NC(=O)[C@H](Cc2ccc(-c3ccccc3)cc2)NC(=O)[C@H](C(C)C)NC(=O)[C@H](Cc2c[nH]c3ccccc23)NC(=O)[C@H](CC(=O)O)NC(=O)[C@H](Cc2ccc(OCC(=O)O)cc2)NC(=O)[C@H]([C@@H](C)O)NC(=O)CSC[C@@H](C(=O)N[C@@H](CCN)C(=O)NCCCCCCCCCCC(=O)O)NC(=O)[C@H](CCCNC(N)=O)NC(=O)[C@H](C(C)C)NC(=O)[C@H](CC2CCCCC2)NC(=O)[C@H](CCN)NC1=O [Compound 2729] ({CH2CO}-TY(Carboxymethyl)DWV[Bip]Y[Orn][dL][Dab][Cha]V[Cit]C[Dab][Aun]-OH; thioether N-14)
15.5	CC(C)C[C@H]1NC(=O)[C@H](CCCN)NC(=O)[C@H](Cc2ccc(O)cc2)NC(=O)[C@H](Cc2ccc(-c3ccccc3)cc2)NC(=O)[C@H](Cc2ccc(O)cc2)NC(=O)[C@H](Cc2c[nH]c3ccccc23)NC(=O)[C@H](CC(=O)O)NC(=O)[C@H](Cc2ccc(OCC(=O)O)cc2)NC(=O)[C@H]([C@@H](C)O)NC(=O)CSC[C@@H](C(=O)N[C@@H](CCN)C(=O)NCCCCCCCCCCC(=O)O)NC(=O)[C@H](CCCNC(N)=O)NC(=O)[C@H](C(C)C)NC(=O)[C@H](CC2CCCCC2)NC(=O)[C@H](CCN)NC1=O [Compound 2730] ({CH2CO}-TY(Carboxymethyl)DWY[Bip]Y[Orn][dL][Dab][Cha]V[Cit]C[Dab][Aun]-OH; thioether N-14)
18.6	Cc1cccc(C[C@@H]2NC(=O)[C@H](CC(=O)O)NC(=O)[C@H](Cc3ccc(OCC(=O)O)cc3)NC(=O)[C@H](CN)NC(=O)CSC[C@@H](C(=O)N[C@@H](CCN)C(=O)NCCCCCCCCCCC(=O)O)NC(=O)[C@H]([C@@H](C)O)NC(=O)[C@H](C(C)C)NC(=O)[C@H](CC3CCCCC3)NC(=O)[C@H](CCN)NC(=O)[C@@H](CC(C)C)NC(=O)[C@H](CCCN)NC(=O)[C@H](Cc3ccc(OCC(=O)O)cc3)NC(=O)[C@H](Cc3ccc(-c4ccccc4)cc3)NC(=O)[C@H](C(C)C)NC2=O)c1 [Compound 2731] ({CH2CO}-[Dap]Y(Carboxymethyl)D[Phe(3-Me)]V[Bip]Y(Carboxymethyl)[Orn][dL][Dab][Cha]VTC[Dab][Aun]-OH; thioether N-14)
21.2	Cc1cccc(C[C@@H]2NC(=O)[C@H](CC(=O)O)NC(=O)[C@H](Cc3ccc(OCC(=O)O)cc3)NC(=O)[C@H](CN)NC(=O)CSC[C@@H](C(=O)N[C@@H](CCN)C(=O)NCCCCCCCCCCC(=O)O)NC(=O)[C@H]([C@@H](C)O)NC(=O)[C@H](C(C)C)NC(=O)[C@H](CC3CCCCC3)NC(=O)[C@H](CCN)NC(=O)[C@@H](CC(C)C)NC(=O)[C@H](CCCN)NC(=O)[C@H](Cc3ccc(OCC(=O)O)cc3)NC(=O)[C@H](Cc3ccc(-c4ccccc4)cc3)NC(=O)[C@H](Cc3ccc(OCC(=O)O)cc3)NC2=O)c1 [Compound 2732] ({CH2CO}-[Dap]Y(Carboxymethyl)D[Phe(3-Me)]Y(Carboxymethyl)[Bip]Y(Carboxymethyl)[Orn][dL][Dab][Cha]VTC[Dab][Aun]-OH; thioether N-14)
42.2	Cc1cccc(C[C@@H]2NC(=O)[C@H](CC(=O)O)NC(=O)[C@H](Cc3ccncc3)NC(=O)[C@H](Cc3ccc(OCC(=O)O)cc3)NC(=O)CSC[C@@H](C(=O)N[C@@H](CCN)C(=O)NCCCCCCCCCCC(=O)O)NC(=O)[C@H]([C@@H](C)O)NC(=O)[C@H](C(C)C)NC(=O)[C@H](CC3CCCCC3)NC(=O)[C@H](CCN)NC(=O)[C@@H](CC(C)C)NC(=O)[C@H](CCCN)NC(=O)[C@H](Cc3ccc(O)cc3)NC(=O)[C@H](Cc3ccc(-c4ccccc4)cc3)NC(=O)[C@H](C(C)C)NC2=O)c1 [Compound 2733] ({CH2CO}-Y(Carboxymethyl)[4Pal]D[Phe(3-Me)]V[Bip]Y[Orn][dL][Dab][Cha]VTC[Dab][Aun]-OH; thioether N-14)
27.2	Cc1cccc(C[C@@H]2NC(=O)[C@H](CC(=O)O)NC(=O)[C@H](Cc3ccncc3)NC(=O)[C@H](Cc3ccc(OCC(=O)O)cc3)NC(=O)CSC[C@@H](C(=O)N[C@@H](CCN)C(=O)NCCCCCCCCCCC(=O)O)NC(=O)[C@H]([C@@H](C)O)NC(=O)[C@H](C(C)C)NC(=O)[C@H](CC3CCCCC3)NC(=O)[C@H](CCN)NC(=O)[C@@H](CC(C)C)NC(=O)[C@H](CCCN)NC(=O)[C@H](Cc3ccc(O)cc3)NC(=O)[C@H](Cc3ccc(-c4ccccc4)cc3)NC(=O)[C@H](Cc3ccc(O)cc3)NC2=O)c1 [Compound 2734] ({CH2CO}-Y(Carboxymethyl)[4Pal]D[Phe(3-Me)]Y[Bip]Y[Orn][dL][Dab][Cha]VTC[Dab][Aun]-OH; thioether N-14)
